According to US6207644A, “Peptide analogues containing a 7-membered lactam ring” (Zeneca Limited, priority 1996, dated 2001):

How the values were obtained:
[1] = target: HLA-DR3; test: Variant to Test A: peptide selectivity binding assay, HLA-DR3; design: species or system human; details: no significant binding
Protocol: (§1) As a varient to test A, the ability of a peptide of the invention to bind to one or more HLA-DR molecules was assessed as follows:
(§2) The method used was a modification of that described by Gorga et al, 1987, J.Biol.Chem. 262, 16087-16094. Human HLA-DR antigens were purified from various cell lines by immunoaffinity chromatography. […] Protein content was determined by a Biorad protein assay and purity by SDS-PAGE electrophoresis.
(§3) 200 nM biotin-FHA307-320 in phosphate buffered saline (PBS) was incubated with either purified HLA-DR1, DR2, DR4Dw4, DR4Dw13 or DR4Dw14 (2-20 μg/ml) in V-well microtitre plates (Nunc) with or without inhibitor peptides in assay buffer (PBS, 0.01% NP40 (Sigma.)) For DR3 inhibition, 400 nM Biotin-Ahx-(D)Ala-Ala-Ala-Che-Ile-Ala-Ala-Ala-Thr-Leu-Lys-Ala-Ala-(D)Ala-OH (SEQ ID NO:25) was incubated with purified DR3 (20 μg/ml), and incubated as above. After 48 hours, the incubates were treated, and absorbance readings taken as described in Test A. The inhibitory activity of peptides, expressed as IC50 values, was calculating using Microcal Origin software on a PC.

[2] = target: T1, HLA-DR4Dw4 (Homo sapiens, UniProt P01903+P01911, A100K/A169T/F76Y/I96L/K127E/L162R/M171V/N62H/P40V/Q125Y/R42H/S133A/S149N/S66Y/V115G/V209L/W38E); test: Test A: purified HLA-DR peptide in vitro binding assay (or its variant)
T1 construct: made in house; host or cells: double-recombinant baculovirus in Sf21 insect cells (Test A), or the human JAH cell line (variant to Test A)
Protocol: Purified HLA-DR peptide in vitro binding assay. […]. At the end of the incubation period 100 μl of the incubate is transferred to Enzyme Linked ImmunoSorbant Assay (ELISA) plates (Nunc) previously coated with an anti-MHC antibody (L243-American Type Culture Collection (ATCC) HB55 as described in Lampson and Levy (1980) J. Immunol. 125, 293-299) at a concentration of 10 μg/ml for 1 hour at room temperature and blocked thereafter for 1 hour with 1% bovine serum albumin (BSA) in PBS and 0.05% Tween 20. […] The reaction is stopped by adding 2M sulphuric acid (10 μl per well) and the absorbance read at 450 nm to quantify the amount of peptide bound. The inhibitory activity of peptides is obtained by plotting absorbance against concentration. […]
To create the double-recombinant baculovirus, a cDNA encoding the β chain is cloned into the transfer vector pAcUW1 [Weyer, U; Knight, S & Possee, R D (1990) J. Gen. […] Double-recombinant viruses are detected by spotting insecT-cells, infected with randomly picked viruses from the transfection,onto membranes and reacting them with a monoclonal antibody e.g. L243 which specifically recognises the HLA-DR heterodimer. Binding of the antibody to Sf21 insecT-cells is detected using standard flow cytometry techniques, readily available in the literature. […]

[3] = Loss of peptide due to degradation on extrusion of polymer depot formulation; type: physicochemical; details: in the form of a polymer depot formulation
Protocol: Typical procedures for measuring the level of degradation of a peptide compound of the present invention are as follows:
About 20 mg of peptide is accurately weighed and sufficient polymer (50/50% molar poly(D,L-lactic acid/glycolic acid) copolymer of approximate weight average molecular weight 20 kD and approximate polydispersity of 1.7 as determined by size exclusion chromatography relative to polystyrene standards) added to produce an approximate 20% w/w mixture. This is dissolved in anhydride-free glacial acetic acid to produce an approximate 10% w/v solution. The solution is freeze dried and the resulting freeze dried product is stored under vacuum prior to use.
About 100 mg of freeze dried material is loaded into the barrel of a small laboratory extruder and the plunger pushed down to consolidate the sample. […]
Each standard is filtered through a 5 μm Millex PTFE filter and an aliquot of filtrate, together with aliquots of the solutions A, analysed by HPLC using duplicate sample injections. The peptide content of the extruded polymer depot formulation of peptide is calculated from the concentration of peptide in solutions A, which is determined by comparing the area of the peptide peak in solutions A with the area of the peptide peak from the standard solutions.

[4] = system: HLA-DR2; test: Variant to Test A: peptide selectivity binding assay, HLA-DR2; design: species or system human
Protocol: as §1, §2, §3

[5] = system: BALB/C mice; test: Test C: peptide stimulated DTH (delayed type hypersensitivity) in BALB/C mice; type: in vivo; details: osmotic mini-pump
Protocol: Peptide stimulated DTH (delayed type hypersensitivity) in BALB/C mice. […] Balb/c female mice (18-20 g), 5 per group, were immunised sub-cutaneously on the flank with 0.1 ml of an emulsion of ovalbumin (Sigma) (2 mg/ml in saline) mixed 1:1 (v/v) with complete Freunds adjurant (Sigma). Seven days later footpad thickness was detemined using a dual caliper micrometer followed by a challenge in one hind footpad with a 30 μl sub-plantar injection of 1% heat-aggregated ovalbumin protein in saline. Twenty-four hours after antigen challenge, footpads were measured and the DTH response calculated as the percentage increase in footpad thickness in the injected footpad compared to contralateral control. Inhibitors were adminstered by 3-day osmotic mini-pumps (Alzet) implanted 24 hours prior to antigen challenge at doses ranging from 10 mg/kg/day to 0.1 μg/kg/day. The degree of inhibition was calculated by substracting the value for swelling of inhibitor treated footpads from that of the vehicle dosed controls, dividing by the control value and multiplying by 100%.

[6] = Aqueous stability of peptide in McIlvaine's buffer; type: physicochemical
Protocol: A typical procedure for measuring the stability of a peptide compound of the present invention is as follows, in which, to minimize microbial contamination and degradation, all equipment that is used to prepare peptide solutions is sterilized in an autoclave and all material transfers carried out in a Class II laminar flow cabinet. Approximately 20 ml of McIlvaine's citric acid-phosphate buffer solution at pH 3 or 7.6 containing 0.02% sodium azide is filtered into a 50 ml bottle using a sterile […] filter unit and a 20 ml syringe. Approximately 1.2 mg of peptide is accurately weighed in a capped vial. Using a sterile pipette tip, sufficient buffer solution is added to the peptide in the vial to give a peptide concentration of 0.1 mg/ml. The vial is capped and shaken to dissolve the peptide. Using a sterile pipette tip, aliquots of approximately 1 ml of the peptide solution are transferred to 10 HPLC vials, which are then capped. 5 vials are stored at -18 and 37° C. The area of the peptide peak for the solution is determined by HPLC using appropriate standards initially and after storage at -18 and 37° C. for 1, 2, 3 and 4 weeks, using a fresh vial at each time point with duplicate sample injections. The percentage of peptide remaining after storage at 37° C. at each time point is determined from the ratio of the area of the peptide peak at each time point to the initial area. […]

[7] = Degradation of peptide on in vitro release from an extruded polymer depot; type: physicochemical; details: in the form of a polymer depot formulation
Protocol: A solution of McIlvaine's citric acid-phosphate buffer solution at pH 7.6 containing 0.02% sodium azide, is filtered through a 0.22μ filter and stored at 4° C. Approximately 10 mg of extruded polymer depot containing peptide is placed in two small vials and 2 ml of the buffer solution added. The vials are then capped and stored in a water bath at 37° C. for a month. At suitable time points over a month, three 0.6 ml aliquots of release medium are removed from each vial and either analysed by HPLC or stored frozen in an HPLC vial at -18° C. prior to analysis by HPLC. 1.8 ml of the buffer solution is added to each vial containing the depot to replace the release medium that has been removed at each time point.
The average amount of intact peptide in the release medium at each time point is determined by HPLC using duplicate sample injections by comparing the area of the peptide peak in the release media with the area of the peptide peak from standard buffer solutions of peptide at known concentrations. The approximate average amount of peptide degradation products in the release media at each time point is determined by HPLC by comparing the area of additional new peaks in the release media with the area of the peptide peak from standard buffer solutions of peptide at known concentrations and assuming the extinction coefficient has not changed. […]

[8] = system: HLA-DR1; test: Variant to Test A: peptide selectivity binding assay, HLA-DR1; design: species or system human
Protocol: as §1, §2, §3

C[C@H](NC(=O)CN1CCCC[C@H](NC(=O)[C@H](C)NC(=O)[C@H](C)NC(=O)[C@H](CCCNC(=N)N)NC(=O)CCCCc2ccccc2)C1=O)C(=O)N[C@@H](C)C(=O)N[C@@H](C)C(=O)Nc1ccc(CC(N)=O)cc1 [Example 1, Phv-Arg-Ala-Ala-IIb-Ala-Ala-Ala-Papa-NH2]
IC50 [1]: > 100 µM
concentration showing significant binding to HLA-DR4Dw4 [2]: ≤ 0.1 µM
loss due to degradation on extrusion [3]: minimal loss due to degradation on extrusion
binding to HLA-DR2 [4]: significant binding
dose at which active in Test C [5]: < 0.1 mg/kg/day
aqueous stability ([6]; pH3): good aqueous stability
aqueous stability ([6]; pH7.6): good aqueous stability
degradation on release from depot formulation [7]: minimal degradation on release
binding to HLA-DR1 [8]: significant binding
